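Method: 48-hour compound exposure of cells in 96-well plates, five concentrations, linear interpolation of endpoints. GI50 = concentration required for 50% inhibition of growth.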 Activity calls are given as the source filed them. No stated cut-off is given here; in the data, active = GI50 up to about 1.1 µM and inactive = higher.
Key:
Assay in all cases: DTP human tumour cell line panel, 48 h
786-0 = tested on: 786-0
A498 = tested on: A498
A549 = tested on: A549
ACHN = tested on: ACHN
BT-549 = tested on: BT-549
CAKI-1 = tested on: CAKI-1
CCRF-CEM = tested on: CCRF-CEM
COLO 205 = tested on: COLO 205
DU-145 = tested on: DU-145
EKVX = tested on: EKVX
HCC 2998 = tested on: HCC 2998
HCT-116 = tested on: HCT-116
HCT-15 = tested on: HCT-15
HL-60 = tested on: HL-60
HOP-62 = tested on: HOP-62
HT-29 = tested on: HT-29
IGROV-1 = tested on: IGROV-1
K562 = tested on: K562
KM12 = tested on: KM12
LOX IMVI = tested on: LOX IMVI
M14 = tested on: M14
MDA-MB-231 = tested on: MDA-MB-231
MDA-MB-435 = tested on: MDA-MB-435
MDA-N = tested on: MDA-N
MOLT-4 = tested on: MOLT-4
Malme-3M = tested on: Malme-3M
NCI-H226 = tested on: NCI-H226
NCI-H23 = tested on: NCI-H23
NCI-H522 = tested on: NCI-H522
NCI/ADR-RES = tested on: NCI/ADR-RES
OVCAR-3 = tested on: OVCAR-3
OVCAR-4 = tested on: OVCAR-4
OVCAR-5 = tested on: OVCAR-5
OVCAR-8 = tested on: OVCAR-8
PC-3 = tested on: PC-3
RPMI-8226 = tested on: RPMI-8226
SF-268 = tested on: SF-268
SF-295 = tested on: SF-295
SF-539 = tested on: SF-539
SK-MEL-2 = tested on: SK-MEL-2
SK-MEL-5 = tested on: SK-MEL-5
SK-OV-3 = tested on: SK-OV-3
SN12C = tested on: SN12C
SNB-75 = tested on: SNB-75
SR = tested on: SR
SW-620 = tested on: SW-620
T47D = tested on: T47D
TK-10 = tested on: TK-10
U-251 = tested on: U-251
UACC-257 = tested on: UACC-257
UACC-62 = tested on: UACC-62
UO-31 = tested on: UO-31

SMILES: COc1ccc2c(c1)CC1=C(O2)c2ccc(OC)cc2OC1
- GI50 (786-0): 21.3 µM (inactive)
- GI50 (A498): > 100 µM (inactive)
- GI50 (A549): 74.6 µM (inactive)
- GI50 (ACHN): 18.2 µM (inactive)
- GI50 (BT-549): 21.5 µM (inactive)
- GI50 (CAKI-1): 18.7 µM (inactive)
- GI50 (CCRF-CEM): 31 µM (inactive)
- GI50 (COLO 205): 18.3 µM (inactive)
- GI50 (DU-145): 44.1 µM (inactive)
- GI50 (EKVX): 15.2 µM (inactive)
- GI50 (HCC 2998): 38.5 µM (inactive)
- GI50 (HCT-116): 18.3 µM (inactive)
- GI50 (HCT-15): 17.2 µM
- GI50 (HL-60): > 100 µM (inactive)
- GI50 (HOP-62): 41.9 µM (inactive)
- GI50 (HT-29): 20.7 µM (inactive)
- GI50 (IGROV-1): 28.5 µM (inactive)
- GI50 (K562): 44.8 µM (inactive)
- GI50 (KM12): 31 µM (inactive)
- GI50 (LOX IMVI): 13.6 µM (inactive)
- GI50 (M14): 19.7 µM (inactive)
- GI50 (MDA-MB-231): 39.6 µM (inactive)
- GI50 (MDA-MB-435): 17.5 µM (inactive)
- GI50 (MDA-N): 17.5 µM (inactive)
- GI50 (MOLT-4): 33.4 µM (inactive)
- GI50 (Malme-3M): 22.5 µM (inactive)
- GI50 (NCI-H226): 18.5 µM (inactive)
- GI50 (NCI-H23): 45.7 µM (inactive)
- GI50 (NCI-H522): 17 µM (inactive)
- GI50 (NCI/ADR-RES): 34 µM (inactive)
- GI50 (OVCAR-3): 19.9 µM (inactive)
- GI50 (OVCAR-4): 22.5 µM (inactive)
- GI50 (OVCAR-5): 49.4 µM (inactive)
- GI50 (OVCAR-8): 29.9 µM (inactive)
- GI50 (PC-3): 23.2 µM (inactive)
- GI50 (RPMI-8226): 33.7 µM (inactive)
- GI50 (SF-268): 24.4 µM (inactive)
- GI50 (SF-295): 52.2 µM (inactive)
- GI50 (SF-539): 35.9 µM (inactive)
- GI50 (SK-MEL-2): 31.3 µM (inactive)
- GI50 (SK-MEL-5): 18.2 µM (inactive)
- GI50 (SK-OV-3): 90.4 µM (inactive)
- GI50 (SN12C): 20.5 µM (inactive)
- GI50 (SNB-75): 25 µM (inactive)
- GI50 (SR): 36.8 µM (inactive)
- GI50 (SW-620): 16.6 µM (inactive)
- GI50 (T47D): 13.9 µM (inactive)
- GI50 (TK-10): 22.6 µM (inactive)
- GI50 (U-251): 17.5 µM (inactive)
- GI50 (UACC-257): 19.2 µM (inactive)
- GI50 (UACC-62): 17.7 µM (inactive)
- GI50 (UO-31): 61.2 µM (inactive)

— ChEMBL document CHEMBL1201862, “PubChem BioAssay data set” (2004)
